Measured values reported in BindingDB's records for PubMed 38142509 (Sichuan University).

Biological target: Signal transducer and activator of transcription 3 (Homo sapiens, UniProt P40763)
Test: Inhibition of STAT3 (unknown origin)

Signal transducer and activator of transcription 3, sequence (P40763 whole entry): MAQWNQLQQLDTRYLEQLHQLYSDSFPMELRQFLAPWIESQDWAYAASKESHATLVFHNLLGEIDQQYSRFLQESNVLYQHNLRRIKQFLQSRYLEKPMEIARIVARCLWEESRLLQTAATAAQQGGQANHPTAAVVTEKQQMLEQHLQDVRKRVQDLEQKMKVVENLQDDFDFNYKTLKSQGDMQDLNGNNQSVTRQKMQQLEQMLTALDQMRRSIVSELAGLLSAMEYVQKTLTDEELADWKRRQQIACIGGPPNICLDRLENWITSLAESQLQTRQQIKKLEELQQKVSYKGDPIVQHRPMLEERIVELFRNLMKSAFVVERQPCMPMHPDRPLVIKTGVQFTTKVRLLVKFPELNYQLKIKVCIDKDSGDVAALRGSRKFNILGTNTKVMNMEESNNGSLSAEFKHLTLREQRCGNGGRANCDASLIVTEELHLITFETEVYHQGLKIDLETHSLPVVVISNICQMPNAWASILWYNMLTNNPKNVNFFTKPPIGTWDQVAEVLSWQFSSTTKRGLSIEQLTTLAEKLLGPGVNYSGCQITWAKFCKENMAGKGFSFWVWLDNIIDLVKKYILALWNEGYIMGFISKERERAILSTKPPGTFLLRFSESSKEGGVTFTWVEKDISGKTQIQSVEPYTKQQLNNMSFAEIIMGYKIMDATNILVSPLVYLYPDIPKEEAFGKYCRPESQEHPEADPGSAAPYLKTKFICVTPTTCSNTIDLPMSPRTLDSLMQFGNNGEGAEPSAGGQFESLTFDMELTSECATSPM

With `COC(=O)[C@@]12OC[C@]34[C@H]([C@@H](O)[C@@H]1O)[C@@]1(C)CC(=O)C(O)=C(C)[C@@H]1C[C@H]3OC(=O)[C@H](OC(=O)C=C(C)C(C)(C)OC(C)=O)[C@@H]24` as the compound, how does the IC50 read?
Its IC50 is 2.4 nM.
